# From patent US20230013669A1, “Antibacterial Treatment Using a Cannabinoid and an Active Agent” (priority 2019, published 2023)
# Several values for one entry are separate records, joined by “and”; a condition that tells them apart may be missing. Equal entries are not always repeated. Where two headings read alike, the source gives them in different places.
# Test system: Acinetobacter baumannii ATCC 19606 (GN_034)
# Experiment: Synergy of cannabidiol with cell-wall disrupting agent (CBD MIC in combination, FICI)
# Type: cell-based
# Conditions: for MIC: Acinetobacter baumannii
# Description: The compounds were stored short term at 4° C.
# Analysis was performed using Microsoft Excel.
smiles,measurement,setting,value
"C=C(C)C1CCC(C)=CC1c1c(O)cc(CCCCC)cc1O (centres unmarked) [Cannabidiol, 2-[3-methyl-6-(1-methylethenyl)-2-cyclohexen-1-yl]-5-pentyl-1,3-benzenediol]",FICI range,"Acinetobacter baumannii ATCC 19606, CBD with FADDI-287, MIC table (Table 95)",0.25-8
same,FICI range,"Acinetobacter baumannii ATCC 19606, CBD with FADDI-287, Synergy table (Table 97)",0.25-8^
same,FICI range,"Acinetobacter baumannii ATCC 19606, CBD with MCC_8980, MIC table (Table 99)",0.06-1.02
same,FICI range,"Acinetobacter baumannii ATCC 19606, CBD with MCC_8980, Synergy table (Table 101), listed as CBD",0.06-0.25 and 0.06-0.26
same,FICI range,"Acinetobacter baumannii ATCC 19606, CBD with Spero SPR206, Synergy table, listed as CBD",0.25-0.5 and 0.25
same,CBD MIC with MCC_8980,"Acinetobacter baumannii ATCC 19606, MCC_8980 at 8 μg/mL, listed as CBD",4 µg/mL
same,CBD MIC with MCC_8980,"Acinetobacter baumannii ATCC 19606, MCC_8980 at 16 μg/mL, listed as CBD",2 µg/mL
same,FICI,"Acinetobacter baumannii ATCC 19606, cannabidiol with FADDI-287 at 0.25 μg/mL, calculated using MIC of 256 μg/mL for cannabidiol",0.5001
same,FICI,"Acinetobacter baumannii ATCC 19606, cannabidiol with FADDI-287 at 0.5 μg/mL, calculated using MIC of 256 μg/mL for cannabidiol",1
same,FICI,"Acinetobacter baumannii ATCC 19606, cannabidiol with FADDI-287 at 1 μg/mL, calculated using MIC of 256 μg/mL for cannabidiol",2
same,FICI,"Acinetobacter baumannii ATCC 19606, cannabidiol with FADDI-287 at 2 μg/mL, calculated using MIC of 256 μg/mL for cannabidiol",4
same,FICI,"Acinetobacter baumannii ATCC 19606, cannabidiol with FADDI-287 at 4 μg/mL, calculated using MIC of 256 μg/mL for cannabidiol",8
same,FICI,"Acinetobacter baumannii ATCC 19606, cannabidiol with MCC_8980 at 1 μg/mL, calculated using MIC of 256 μg/mL for cannabidiol",1.016
same,FICI,"Acinetobacter baumannii ATCC 19606, cannabidiol with MCC_8980 at 2 μg/mL, calculated using MIC of 256 μg/mL for cannabidiol",0.0625
same,FICI,"Acinetobacter baumannii ATCC 19606, cannabidiol with MCC_8980 at 4 μg/mL, calculated using MIC of 256 μg/mL for cannabidiol",0.09375
same,FICI,"Acinetobacter baumannii ATCC 19606, cannabidiol with MCC_8980 at 8 μg/mL, calculated using MIC of 256 μg/mL for cannabidiol",0.1328 and 0.1406
same,FICI,"Acinetobacter baumannii ATCC 19606, cannabidiol with MCC_8980 at 16 μg/mL, calculated using MIC of 256 μg/mL for cannabidiol",0.2578
same,FICI,"Acinetobacter baumannii ATCC 19606, cannabidiol with SPR741 at 1 μg/mL, calculated using MIC of 256 μg/mL for cannabidiol",1.016
same,FICI,"Acinetobacter baumannii ATCC 19606, cannabidiol with SPR741 at 2 μg/mL, calculated using MIC of 256 μg/mL for cannabidiol",1.031
same,FICI,"Acinetobacter baumannii ATCC 19606, cannabidiol with SPR741 at 2 μg/mL, calculated using MIC of 256 μg/mL for cannabidiol, listed as cannabidiol",1.016
same,MIC,"ATCC19606, Acinetobacter baumannii ATCC 19606, FADDI-287 at 0.25 μg/mL, read-out: CBD MIC with FADDI-287",0.015 µg/mL
same,MIC,"ATCC19606, Acinetobacter baumannii ATCC 19606, FADDI-287 at 0.5 μg/mL, read-out: CBD MIC with FADDI-287",0.001 µg/mL
same,MIC,"ATCC19606, Acinetobacter baumannii ATCC 19606, FADDI-287 at 1 μg/mL, read-out: CBD MIC with FADDI-287",0.001 µg/mL
same,MIC,"ATCC19606, Acinetobacter baumannii ATCC 19606, FADDI-287 at 2 μg/mL, read-out: CBD MIC with FADDI-287",0.001 µg/mL
same,MIC,"ATCC19606, Acinetobacter baumannii ATCC 19606, FADDI-287 at 4 μg/mL, read-out: CBD MIC with FADDI-287",0.001 µg/mL
same,MIC,"ATCC19606, Acinetobacter baumannii ATCC 19606, MCC_8980 at 2 μg/mL, read-out: CBD MIC with MCC_8980",8 µg/mL
same,MIC,"ATCC19606, Acinetobacter baumannii ATCC 19606, MCC_8980 at 4 μg/mL, read-out: CBD MIC with MCC_8980",8 µg/mL
same,MIC,"ATCC19606, Acinetobacter baumannii ATCC 19606, MCC_8980 at 8 μg/mL, read-out: CBD MIC with MCC_8980",2 µg/mL
same,MIC,"ATCC19606, Acinetobacter baumannii ATCC 19606, MCC_8980 at 16 μg/mL, read-out: CBD MIC with MCC_8980",1 µg/mL
same,MIC,"ATCC19606, Acinetobacter baumannii ATCC 19606, Spero SPR206 at 2 μg/mL, read-out: CBD MIC with Spero SPR206",0.001 µg/mL
same,MIC,"ATCC19606, Acinetobacter baumannii ATCC 19606, Spero SPR206 at 4 μg/mL, read-out: CBD MIC with Spero SPR206",0.001 µg/mL
same,MIC,"ATCC19606, MCC_6442 at 1 μg/mL, Acinetobacter baumannii ATCC 19606, read-out: CBD MIC with MCC_6442",16 µg/mL
same,MIC,"ATCC19606, MCC_6442 at 2 μg/mL, Acinetobacter baumannii ATCC 19606, read-out: CBD MIC with MCC_6442",1 µg/mL
same,MIC,"ATCC19606, MCC_6442 at 4 μg/mL, Acinetobacter baumannii ATCC 19606, read-out: CBD MIC with MCC_6442",0.5 µg/mL
same,MIC,"ATCC19606, Octapeptin C4 at 2 μg/mL, read-out: CBD MIC with Octapeptin C4",8 µg/mL
same,MIC,"ATCC19606, Octapeptin C4 at 4 μg/mL, read-out: CBD MIC with Octapeptin C4",2 µg/mL
same,MIC,"ATCC19606, Spero SPR206 at 0.25 μg/mL, 1st of 3 experiments, read-out: CBD MIC with Spero SPR206",0.001 µg/mL
same,MIC,"ATCC19606, Spero SPR206 at 0.25 μg/mL, 3rd of 3 experiments, read-out: CBD MIC with Spero SPR206",> 256 µg/mL
same,MIC,"ATCC19606, Spero SPR206 at 0.5 μg/mL, 1st of 3 experiments, read-out: CBD MIC with Spero SPR206",0.001 µg/mL
same,MIC,"ATCC19606, Spero SPR206 at 0.5 μg/mL, 3rd of 3 experiments, read-out: CBD MIC with Spero SPR206",> 256 µg/mL
same,MIC,"ATCC19606, Spero SPR206 at 1 μg/mL, 1st of 3 experiments, read-out: CBD MIC with Spero SPR206",0.001 µg/mL
same,MIC,"ATCC19606, Spero SPR206 at 1 μg/mL, 3rd of 3 experiments, read-out: CBD MIC with Spero SPR206",1 µg/mL
same,MIC,"ATCC19606, Spero SPR206 at 2 μg/mL, 1st of 3 experiments, read-out: CBD MIC with Spero SPR206",0.001 µg/mL
same,MIC,"ATCC19606, Spero SPR206 at 2 μg/mL, 3rd of 3 experiments, read-out: CBD MIC with Spero SPR206",0.001 µg/mL
same,MIC,"ATCC19606, Spero SPR206 at 4 μg/mL, 1st of 3 experiments, read-out: CBD MIC with Spero SPR206",0.001 µg/mL
same,MIC,"ATCC19606, Spero SPR206 at 4 μg/mL, 3rd of 3 experiments, read-out: CBD MIC with Spero SPR206",0.001 µg/mL
same,CBD MIC with Aztreonam,Aztreonam at 4 μg/mL,32 µg/mL
same,CBD MIC with Aztreonam,Aztreonam at 8 μg/mL,32 µg/mL
same,CBD MIC with Aztreonam,Aztreonam at 16 μg/mL,0.001 µg/mL
same,FICI,"CBD with Aztreonam at 0.5 μg/mL, CBD MIC taken as 256 μg/mL",1.016
same,FICI,"CBD with Aztreonam at 1 μg/mL, CBD MIC taken as 256 μg/mL",1.031
same,FICI,"CBD with Aztreonam at 2 μg/mL, CBD MIC taken as 256 μg/mL",1.0625
same,FICI,"CBD with Aztreonam at 4 μg/mL, CBD MIC taken as 256 μg/mL",0.25
